This note sets out measurements from patent US12180193B2, “Accelerating fibrosarcoma protein degrading compounds and associated methods of use” (Arvinas Operations, Inc., priority 2020, dated 2024).

One assay addresses T1, BRAF V600E (Homo sapiens, UniProt P15056, V600E).
T1 construct: expressed in transfected cells
In words: Cellular assay of target protein degradation, T-Rex 293 cells stably transfected with HA-BRAF_V600E (HA immunofluorescence, high content imaging). Format: cell-based. As to conditions: T-Rex 293 HA-BRAF V600E; for DC50: half maximal degradation, read-out: BRaf V600E DC50; for Dmax: maximum degradation observed. An outline of the steps:
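Read-out is anti-HA immunofluorescence quantified by high-content imaging, giving half-maximal degradation concentration (DC50) and maximum degradation (Dmax, percent of control). Cells expressed the construct under 1 ng/mL doxycycline and received compound (1 μM to 0.1 nM final, 0.1% DMSO) for 24 h at 37 °C.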

Another assay deals with T2, BRAF G466V (Homo sapiens, UniProt P15056, G466V).
T2 construct: expressed in transfected cells
In words: Cellular assay of target protein degradation, T-Rex 293 cells stably transfected with HA-BRAF G466V (HA immunofluorescence, high content imaging). As to conditions: T-Rex 293 HA-BRAF G466V; for DC50: half maximal degradation, read-out: BRaf G466V DC50; for Dmax: maximum degradation observed. It counts as cell-based. An outline of the steps: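 First, stably transfected T-Rex 293 cells were plated with 0.75 ng/mL doxycycline and grown for 24 hours. Next, compound (final 30 nM to 3 pM, 0.1% DMSO) was added for another 24 hours at 37° C. Finally, cells were fixed, stained for HA and imaged.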

T1 sequence (P15056 whole entry V600E): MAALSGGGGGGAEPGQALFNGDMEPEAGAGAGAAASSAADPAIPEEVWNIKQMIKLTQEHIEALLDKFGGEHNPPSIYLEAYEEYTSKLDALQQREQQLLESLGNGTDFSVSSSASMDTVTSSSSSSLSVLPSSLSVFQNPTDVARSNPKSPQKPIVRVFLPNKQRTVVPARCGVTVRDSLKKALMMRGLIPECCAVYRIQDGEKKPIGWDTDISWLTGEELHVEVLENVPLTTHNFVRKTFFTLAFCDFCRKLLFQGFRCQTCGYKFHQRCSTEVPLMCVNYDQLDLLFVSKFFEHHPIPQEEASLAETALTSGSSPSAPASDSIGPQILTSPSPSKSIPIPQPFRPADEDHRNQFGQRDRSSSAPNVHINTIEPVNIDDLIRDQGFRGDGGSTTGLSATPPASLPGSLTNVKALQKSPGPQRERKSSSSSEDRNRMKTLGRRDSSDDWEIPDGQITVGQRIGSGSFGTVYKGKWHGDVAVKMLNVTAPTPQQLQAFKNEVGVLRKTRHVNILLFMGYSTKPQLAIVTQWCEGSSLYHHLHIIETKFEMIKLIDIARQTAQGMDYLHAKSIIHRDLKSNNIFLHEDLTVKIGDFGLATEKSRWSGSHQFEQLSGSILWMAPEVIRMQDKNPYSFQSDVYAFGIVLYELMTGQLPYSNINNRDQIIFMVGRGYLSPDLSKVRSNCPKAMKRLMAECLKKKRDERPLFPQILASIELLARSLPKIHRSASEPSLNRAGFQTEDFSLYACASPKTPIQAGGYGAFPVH
T2 sequence (P15056 whole entry G466V): as the sequence (P15056 whole entry V600E) above, with G466V, E600V counted along it

`O=C1CC[C@@H](NC(=O)c2ccc(N3CCN(CC4CCN(c5ccc(-c6cnc7[nH]cc(C(=O)c8c(F)ccc(NS(=O)(=O)N9CC[C@@H](F)C9)c8F)c7c6)cc5)CC4)CC3)cc2F)C(=O)N1` [Compound 342, 4-(4-{[1-(4-{3-[2,6-difluoro-3-({[(3R)-3-fluoropyrrolidin-1-yl]sulfonyl}amino)benzoyl]-1H-pyrrolo[2,3-b]pyridin-5-yl}phenyl)piperidin-4-yl]methyl}piperazin-1-yl)-N-[(3R)-2,6-dioxopiperidin-3-yl]-2-fluorobenzamide]: on BRAF V600E, the DC50 is 0.05 to 0.5 µM and the Dmax is below 35%. In addition, at BRAF G466V, the DC50 is 0.001 to 0.01 µM and the Dmax was 35 to 70%.

With `COc1cc(N2CC3(CN(CC4CCN(c5ccc(-c6cnc7[nH]cc(C(=O)c8c(F)ccc(NS(=O)(=O)N9CC[C@@H](F)C9)c8F)c7c6)cc5)CC4)C3)C2)ccc1C(=O)N[C@H]1CCC(=O)NC1=O` [Compound 343, 4-(6-{[1-(4-{3-[2,6-difluoro-3-({[(3R)-3-fluoropyrrolidin-1-yl]sulfonyl}amino)benzoyl]-1H-pyrrolo[2,3-b]pyridin-5-yl}phenyl)piperidin-4-yl]methyl}-2,6-diazaspiro[3.3]heptan-2-yl)-N-[(3S)-2,6-dioxopiperidin-3-yl]-2-methoxybenzamide], at BRAF V600E, the DC50 is 0.005 to 0.05 µM and the Dmax is 35 to 70%. Further, at BRAF G466V, the DC50 was 0.001 to 0.01 µM and the Dmax was above 70%.

With `COc1cc(N2CC3(CN(CC4CCN(c5ccc(-c6cnc7[nH]cc(C(=O)c8c(F)ccc(NS(=O)(=O)N9CC[C@@H](F)C9)c8F)c7c6)cc5)CC4)C3)C2)ccc1C(=O)N[C@@H]1CCC(=O)NC1=O` [Compound 344, 4-(6-{[1-(4-{3-[2,6-difluoro-3-({[(3R)-3-fluoropyrroldiin-1-yl]sulfonyl}amino)benzoyl]-1H-pyrrolo[2,3-b]pyridin-5-yl}phenyl)piperidin-4-yl]methyl}-2,6-diazaspiro[3.3]heptan-2-yl)-N-[(3R)-2,6-dioxopiperidin-3-yl]-2-methoxybenzamide], on BRAF V600E, the half-maximal degradation concentration (DC50) fell in the range of 0.05 to 0.5 µM and the Dmax was below 35%. For the same compound, at BRAF G466V, the DC50 lay within 0.01 to 0.03 µM and the Dmax is above 70%.

As for `O=C1CC[C@H](NC(=O)c2ccc(N3CC4(CN(CC5CCN(c6ccc(-c7cnc8[nH]cc(C(=O)c9c(F)ccc(NS(=O)(=O)N%10CC[C@@H](F)C%10)c9F)c8c7)cc6)CC5)C4)C3)cn2)C(=O)N1` [Compound 345, 5-(6-{[1-(4-{3-[2,6-difluoro-3-({[(3R)-3-fluoropyrrolidin-1-yl]sulfonyl}amino)benzoyl]-1H-pyrrolo[2,3-b]pyridin-5-yl}phenyl)piperidin-4-yl]methyl}-2,6-diazaspiro[3.3]heptan-2-yl)-N-[(3S)-2,6-dioxopiperidin-3-yl]pyridine-2-carboxamide], on BRAF V600E, the half-maximal degradation concentration (DC50) is 0.005 to 0.05 µM and the Dmax was 35 to 70%. Further, at BRAF G466V, the DC50 fell in the range of 0.001 to 0.01 µM and the Dmax was above 70%.

As to `O=C1CC[C@@H](NC(=O)c2ccc(N3CC4(CN(CC5CCN(c6ccc(-c7cnc8[nH]cc(C(=O)c9c(F)ccc(NS(=O)(=O)N%10CC[C@@H](F)C%10)c9F)c8c7)cc6)CC5)C4)C3)cn2)C(=O)N1` [Compound 346, 5-(6-{[1-(4-{3-[2,6-difluoro-3-({[(3R)-3-fluoropyrrolidin-1-yl]sulfonyl}amino)benzoyl]-1H-pyrrolo[2,3-b]pyridin-5-yl}phenyl)piperidin-4-yl]methyl}-2,6-diazaspiro[3.3]heptan-2-yl)-N-[(3R)-2,6-dioxopiperidin-3-yl]pyridine-2-carboxamide], on BRAF V600E, the DC50 is 0.05 to 0.5 µM and the maximal degradation (Dmax) is below 35%. In addition, on BRAF G466V, the DC50 was 0.001 to 0.01 µM and the Dmax was below 35%.
